Tests used:
NIH 3T3 cells [1] = assay: Relative cytotoxicity by MTS assay (CellTiter 96) of lipoplex-treated NIH 3T3 cells; format: cell-based; settings: 1:1 lipid:DOPE, 2:1 charge ratio, FIG. 2
Experimental: (§1) FIG. 2 is a bar graph showing luciferase transfection results as the mean (n=4) and standard deviation of total luciferase light units (RLU, left vertical axis) obtained from NIH 3T3 cells lysed after administration of […] of DNA. Relative cytotoxicity, depicted by the solid line, is plotted according to the right vertical axis, calculated as described in Example 3. With the exception of DOTAP, 1:1 cationic lipid:DOPE liposomes at a 2:1 molar charge ratio (lipid charge to DNA phosphate charge) were used for lipoplex formation. DOTAP was used without a co-lipid.
(§2) Cell viability was determined by evaluating the […] dehydrogenase activity of post-transfected cells prior to lysis using the CellTiter 96 Aqueous Non-Radioactive Cell Proliferation Assay (Promega). The tetrazolium salt solution (Owen's Reagent; […]) was added to each well and the 24 well plate was then gently agitated to ensure complete mixing. After incubation for an additional 3-4 h, each well was assayed for formazan production by removing an aliquot of the medium and diluting with 9 parts phosphate buffered saline (PBS) solution. The dilution was conducted in a 1.5 mL methylacrylate UV/VIS disposable cell, and the relative amount of formazan was determined by taking absorbance reading at 490 nm using PBS as the reference. The mean (n=4) of the absorbance values was calculated and compared to the mean absorbance value for non-transfected cells. The final results were expressed in terms of relative cytotoxicity. Relative cytotoxicity was calculated by subtracting from one the ratio of mean absorbance value for transfected cells over mean absorbance value for untreated cells. A relative cytotoxicity value of zero implies no difference from untreated cells, no measurable cytotoxicity. The maximum value of one implies total cell death for treated cells, no measurable formazan production indicating significant toxicity. Negative values may reflect enhanced formazan production as a consequence of cell growth relative to untreated cells.
(§3) To test whether (DMTM(Gly)) and (DOTM(GLY)) ameliorate lipid-induced cytotoxicity, a cell viability assay was performed. The relative cytotoxicity for these lipids and the popular transfection lipids DOTAP and DC-Chol was determined by measuring the […] dehydrogenase activity for lipoplex-treated cells. The comparative assay was performed using NIH 3T3 and 16HBE14o- cells, and the results are plotted in FIGS. 2 and 3, respectively. A requisite for evaluation of cytotoxicity is the concurrent determination of relative transfection activity. Thus, the cationic lipids were evaluated for relative cytotoxicity immediately prior to determination of luciferase activity. […]

[2] = as above; format: cell-based; settings: mouse, nih 3t3 cells, 1:1 lipid:DOPE, 2:1 charge ratio, FIG. 2, read-out: treated cells impaired
Experimental: as §1, §2, §3

[3] = system: NIH 3T3 and 16HBE14o- cells; assay: Phase contrast microscopy of cells transfected with GFP lipoplexes; format: cell-based; settings: for cell morphology by phase contrast: 48 h post-transfection, cell line not stated
Experimental: (§4) Fluorescence experiments were conducted by transfecting the pEGFP-C1 C-Terminal protein fusion vector (Clontech, Palo Alto, Calif.) into NIH 3T3 and 16HBE14o- cells. The transfection protocol was identical to that of luciferase expression experiments in Example 1. Cells were grown for 48 h post-transfection, fixed with 3.7% formaldehyde, and viewed on a Zeiss ICM 405 inverted microscope with high resolution long-working distance objectives. Cells were photographed on the fluorescein channel and with phase contrast optics with a 40× water objective, using T-Max 400 (Kodak, Rochester, N.Y.) film.
(§5) To probe relationships between cellular uptake, expression, and cytotoxicity, a transfection study was conducted using the GFP reporter gene. Fluorescent microscopy of cells treated with GFP-encoded plasmid is a sensitive tool for determining the occurrence of transgene expression. […] Thus, the onset of cytotoxicity precedes gene expression.

[4] = system: NIH 3T3 and 16HBE14o- cells; assay: GFP reporter gene transfection (pEGFP-C1), fluorescence microscopy; format: cell-based; settings: 48 h post-transfection
Experimental: as §4, §5

NIH 3T3 cells [5] = assay: Luciferase transfection (pGL3-control plasmid), NIH 3T3 cells; format: cell-based; settings: for facilitating the intracellular delivery of plasmid DNA: Example 2 conclusion, luciferase plasmid
Experimental: FIG. 1 is a bar graph showing the transfection activity of DMTM(Gly):DOPE liposomes as a function of the mole percent DOPE. DNA transfections were performed using NIH 3T3 cells. Lipoplexes were formulated at a 2:1 molar charge ratio (lipid charge to DNA phosphate charge). The values shown are the mean (n=4) and standard deviation of total luciferase light units (RLU) obtained from cells lysed after administration of […] DNA.
as §1
(§6) a.) Liposome Formulation.
(§7) The cationic lipid […] and DOPE […] were added as chloroform solutions to a 1.9 mL sample vial. The chloroform was evaporated using a stream of dry argon at room temperature. The resulting thin lipid films were placed under vacuum for 2-3 h to ensure that all traces of solvent were removed. Sterile water (1.0 mL) was then added to hydrate the lipid thin films, and the resultant suspension was vigorously mixed (vortex) at room temperature with occasional warming in a 60° C. water bath. The resultant 1.0 mM lipid suspension was used within 2 h of hydration.
NIH 3T3 cells were obtained from ATCC (CRL 1658) and grown in Dulbecco's Modified Eagle's Medium (DMEM; GIBCO) with 10% fetal calf serum (GIBCO) in a humidified 10% CO2 incubator at 37° C. Human bronchial epithelial cells (16HBE14o-) were cultured in Eagle's modified essential medium (MEM; GIBCO) supplemented with 10% fetal bovine serum (GIBCO), 1% glutamine (GIBCO), 1% penicillin and streptomycin (GIBCO), and grown in a 5% humidified CO2 incubator at 37° C. Both cell lines were subcultured into sterile, untreated flasks.
The NIH 3T3 cells were plated at 50,000 cells per well on a standard 24 well plate (Corning, Corning, N.Y.) 24 h prior to transfection. Cells were approximately 80% confluent at the time of transfection. The HBE cells were plated at 50,000 cells/well on a 24 well tissue culture plate coated with fibronectin, vitrogen (collagen), and bovine serum albumin as previously described (Gruenert, D. C., Basbaum C. B., and Widdicombe J. H. (1990) In Vitro Cell Dev Biol., 26, 411-418.) and were transfected as subconfluent monolayers 24 h prior to transfection. The growth media was removed via aspiration and each well was washed once with 0.5 mL buffered saline and overlaid with only MEM.
Cationic lipid-DNA complexes were prepared 15-40 mins prior to transfection. The pGL3-control vector encoding for firefly luciferase (Promega, Madison, Wis.) was. slowly added to a diluted (DMEM or MEM) quantity of the cationic lipid:DOPE suspension in a polystyrene tube. (Falcon #2058), and the lipid-DNA complex was diluted to a final volume of […]. Typically (e.g. using DOTAP), […] of the lipid suspension was used to complex […] of the plasmid DNA, yielding a 2:1 cationic lipid:DNA phosphate molar ratio. Immediately on DNA addition, the suspension was vortexed and allowed to incubate for 15 min at room temperature. A […] aliquot of the resultant lipid-DNA suspension was added to each well […]. The treated cells were then incubated for 4 h at 37° C. Control wells were treated with […] of medium without supplement. At this time, […] of the appropriate growth media including 10% FCS was added to all wells and the cells cultured for 48 h prior to lysis and analysis.
(§8) Relative luciferase activity was determined by using the Enhanced Luciferase Assay Kit and a Moonlight 2010 luminometer (Analytical Luminescence Laboratories, Sparks, Md.). […]

16HBE14o- cells = assay: Luciferase transfection (pGL3-control plasmid), 16HBE14o- cells; format: cell-based, Human; settings: FIG. 3
Experimental: FIG. 3 is a bar graph showing luciferase transfection results as the mean (n=4) and standard deviation of total luciferase light units (RLU, left vertical axis) obtained from 16HBE14o- cells lysed after administration of […] of DNA. Relative cytotoxicity, depicted by the solid line, is plotted according to the right vertical axis, calculated as described in Example 3. With the exception of DOTAP, 1:1 cationic lipid:DOPE liposomes at a 2:1 molar charge ratio (lipid charge to DNA phosphate charge) were used for lipoplex formation. DOTAP was used without a co-lipid.
as §6, §7
NIH 3T3 cells were obtained from ATCC (CRL 1658) and grown in Dulbecco's Modified Eagle's Medium (DMEM; GIBCO) with 10% fetal calf serum (GIBCO) in a humidified 10% CO2 incubator at 37° C. Human bronchial epithelial cells (16HBE14o-) were cultured in Eagle's modified essential medium (MEM; GIBCO) supplemented with 10% fetal bovine serum (GIBCO), 1% glutamine (GIBCO), 1% penicillin and streptomycin (GIBCO), and grown in a 5% humidified CO2 incubator at 37° C. […]
Cationic lipid-DNA complexes were prepared 15-40 mins prior to transfection. The pGL3-control vector encoding for firefly luciferase (Promega, Madison, Wis.) was. slowly added to a diluted (DMEM or MEM) quantity of the cationic lipid:DOPE suspension in a polystyrene tube. […]
as §8

SMILES | cytotoxic response (MTS relative cytotoxicity) (NIH 3T3 cells [1]) | cytotoxicity [2] [%] | cell morphology by phase contrast [3] | vacuolization compared with DOTM(Gly), DOTAP, or DMTM(Gly) ([3]; phase contrast) | GFP gene transfer (presence of fluorescent cells) [4] | facilitating the intracellular delivery of plasmid DNA (NIH 3T3 cells [5]) | transfection activity compared with DOTAP and DC-Chol (NIH 3T3 cells [5]; NIH 3T3, 1:1 lipid:DOPE, FIG. 2) | transfection activity on co-formulation with DOPE (DOPE titration) (NIH 3T3 cells [5]; NIH 3T3, equimolar lipid and DOPE, 2:1 molar charge ratio, FIG. 1) | effect of larger percentage DOPE on transfection activity (NIH 3T3 cells [5]; NIH 3T3, larger percentage DOPE than equimolar, FIG. 1) | transfection activity compared with DOTAP and DC-Chol (16HBE14o- cells; 1:1 lipid:DOPE) | lipid:DOPE optimization results compared with DMTM(Gly) (NIH 3T3 cells [5]; DOPE titration, compared with DMTM(Gly):DOPE) | expression in comparison to DOTAP and DC-Cholesterol (NIH 3T3 cells [5]; NIH 3T3, 1:1 lipid:DOPE (DOTAP without co-lipid), FIG. 2) | transfection activity compared with dimyristoyl analog (NIH 3T3 cells [5]; NIH 3T3, 1:1 lipid:DOPE, 2:1 charge ratio, FIG. 2) | expression in comparison to DOTAP and DC-Cholesterol (16HBE14o- cells; 1:1 lipid:DOPE (DOTAP without co-lipid)) | transfection activity compared with dimyristoyl analog (16HBE14o- cells; 1:1 lipid:DOPE, 2:1 charge ratio)
CC(C)CCC[C@@H](C)[C@H]1CC[C@H]2[C@@H]3CC=C4C[C@@H](OC(=O)NCCN(C)C)CC[C@]4(C)[C@H]3CC[C@]12C [DC-Chol, 3,β-(N-(N',N'-dimethylaminoethane)-carbamoyl)cholesterol, reference compound] | significantly more cytotoxic | ~60 | dense regions of large vacuoles | significantly greater vacuolization | active in facilitating gene transfer | – | – | – | – | – | – | – | – | – | –
CCCCCCCCCCCCCC(=O)OCC(COC(=O)CCCCCCCCCCCCC)(COC(=O)C[N+](C)(C)C)COC(=O)C[N+](C)(C)C [DMTM(Gly), dimyristoyl bis(N,N,N-trimethylglycyl) tetraester] | did not induce a cytotoxic response | – | – | – | – | capable of facilitating the intracellular delivery of plasmid DNA | transfection activities similar to DOTAP and DC-Chol | near optimal transfection activity | only negligible improvement | transfection activities similar to DOTAP and DC-Chol | – | – | – | – | –
CCCCCCCC/C=C\CCCCCCCC(=O)OCC(COC(=O)CCCCCCC/C=C\CCCCCCCC)(COC(=O)C[N+](C)(C)C)COC(=O)C[N+](C)(C)C [DOTM(Gly), dioleoyl bis (N,N,N-trimethylglycyl) tetraester] | did not induce a cytotoxic response | – | normal cellular morphology | – | active in facilitating gene transfer | capable of facilitating the intracellular delivery of plasmid DNA | – | – | – | – | similar | reaching an order of magnitude greater expression | greater transfection activity than the dimyristoyl analog | reaching an order of magnitude greater expression | greater transfection activity than the dimyristoyl analog

Reference: patent US6316421A, “Pentaerythritol lipid derivatives and nuleic-acid complexes” (The Regents of the University of California, priority 2000, dated 2001)
